Measured values taken from ChEMBL document CHEMBL3046248, “Synthesis and Fungicidal Activities of 2-Alkoxyiminoacetamides with a 4, 5-Dihydroisoxazole Ring” (1998).

Assays:
Type in all cases: functional
[1] = system: Pseudoperonospora cubensis; experiment: Fungicidal activity against Pseudoperonospora cubensis in cucumber plant assessed as cucumber downy mildew disease control at 31.3 ppm at 22 +/- 2 degC, 98% RH measured after 10 days
[2] = system: Pseudoperonospora cubensis; experiment: Fungicidal activity against Pseudoperonospora cubensis in cucumber plant assessed as cucumber downy mildew disease control at 125 ppm at 22 +/- 2 degC, 98% RH measured after 10 days
[3] = system: Pseudoperonospora cubensis; experiment: Fungicidal activity against Pseudoperonospora cubensis in cucumber plant assessed as cucumber downy mildew disease control at 500 ppm at 22 +/- 2 degC, 98% RH measured after 10 days
[4] = system: Pseudoperonospora cubensis; experiment: Fungicidal activity against Pseudoperonospora cubensis in cucumber plant assessed as cucumber downy mildew disease control at 7.8 ppm at 22 +/- 2 degC, 98% RH measured after 10 days

| Structure (SMILES) | Activity [1] [%] | Activity [3] [%] | also measured |
| --- | --- | --- | --- |
| CC(C)O/N=C(\C#N)C(=O)NC1=NOC(C)C1 (stereo not given) | 70 | – | Activity [2]: 70% |
| CC1CC(NC(=O)/C(C#N)=N/OCc2ccccc2)=NO1 (stereo not given) | – | <70 | – |
| CO/N=C(\C#N)C(=O)NCc1cc(C)on1 | 70 | – | – |
| CO/N=C(\C#N)C(=O)NCc1ccsc1 | – | <70 | – |
| CO/N=C(\C#N)C(=O)NCC#N | 70 | – | Activity [2]: 70% |
| C#CCNC(=O)/C(C#N)=N/OC | – | <70 | – |
| C=CCNC(=O)/C(C#N)=N/OC | – | <70 | – |
| N#C/C(=N\OCc1ccccc1)C(=O)NCCCl | – | <70 | – |
| CNC(=O)/C(=N\OC)C(=O)NC1=NOC(C)(C)C1 | – | <70 | – |
| CO/N=C(/C(=O)NC1=NOC(C)(C)C1)C(=O)N(C)C | – | <70 | – |
| CO/N=C(\C(=N)OC)C(=O)NC1=NOC(C)(C)C1 | – | <70 | – |
| CO/N=C(\C(=N)SC)C(=O)NC1=NOC(C)(C)C1 | – | – | Activity [2]: 70% |
| CO/N=C(C(=O)NC1=NOC(C)(C)C1)\C(N)=N\O | 70 | – | – |
| CO/N=C(\C#N)C(=O)NC1=NOC(C)(C)C1 | – | – | Activity [4]: 70% |
| CO/N=C(C(=O)NC1=NOC(C)C1)\C(N)=N\O (stereo not given) | 70 | – | – |
| CCC1(C)CC(NC(=O)C(=N/OC)/C(N)=N/O)=NO1 (stereo not given) | 70 | – | – |

| Structure (SMILES) | Activity [1] [%] | Activity [3] [%] | also measured |
| --- | --- | --- | --- |
| CCO/N=C(C(=O)NC1=NOC(C)(C)C1)\C(N)=N\O | 70 | – | – |
| CC1(C)CC(NC(=O)C(=N/OCc2ccccc2)/C(N)=N/O)=NO1 | – | <70 | – |
| CO/N=C(\C#N)C(=O)NCC1=NOC(c2ccccc2)C1 (stereo not given) | – | – | Activity [2]: 70% |
| CO/N=C(\C#N)C(=O)NC1=NOC(C)C1 (stereo not given) | 70 | – | – |
| CO/N=C(\C#N)C(=O)NC1=NOC(c2ccccc2)C1 (stereo not given) | – | <70 | – |
| CCO/N=C(\C#N)C(=O)NCC1=NOC(C)C1 (stereo not given) | 70 | – | – |
| CC(C)O/N=C(\C#N)C(=O)NCC1=NOC(C)C1 (stereo not given) | – | – | Activity [2]: 70% |
| CC1CC(CNC(=O)/C(C#N)=N/OCc2ccccc2)=NO1 (stereo not given) | 70 | – | – |
| CCO/N=C(\C#N)C(=O)NC1=NOC(C)C1 (stereo not given) | 70 | – | Activity [2]: 70% |
| CO/N=C(/C(=O)NC1=NOC(C)(C)C1)C(=O)OC | – | <70 | – |
| CO/N=C(\C(N)=O)C(=O)NC1=NOC(C)(C)C1 | – | <70 | – |
| CO/N=C(\C#N)C(=O)NC1=NOC(C(C)(C)C)C1 (stereo not given) | – | – | Activity [2]: 70% |
| CO/N=C(\C#N)C(=O)NCC1=NOC(C(C)(C)C)C1 (stereo not given) | 70 | – | – |
| CO/N=C(\C#N)C(=O)NCC1=NOC(C)C1 (stereo not given) | – | – | Activity [4]: 70% |
| CO/N=C(\C#N)C(=O)NCc1cccnc1 | 70 | – | – |
| CO/N=C(\C#N)C(=O)NCC1=NOC(C)(C)C1 | – | – | Activity [4]: 70% |
